This is an account of results in PubChem BioAssay (NCI).

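Tested at 5 concentrations; 48 h exposure; 96-well plates; endpoints linearly interpolated, else capped at highest concentration. TGI is the concentration that stops growth completely.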 Where a SMILES comes first, the peptide text is derived from it. Bridges are numbered along the chain shown (N, C = ends). [ ]: non-standard residue; d: D form. The star is where a group is joined. PhAc = O=C(Cc1ccccc1)*

Among the test systems are SK-MEL-5 melanoma; PC-3 prostate; MDA-N; HCT-15 colon; HS 578T breast; NCI-H23 lung; NCI-H522 lung; SW-620 colon; DU-145 prostate; SK-MEL-2 melanoma; IGROV1 ovarian; A498 renal; UACC-62 melanoma; SR leukemia; OVCAR-3 ovarian; MDA-MB-435; ACHN renal; CAKI-1 renal; NCI/ADR-RES ovarian; K-562 leukemia.
Common to all, as to experiment: DTP human tumour cell line panel, 48 h

Usually TGI stands for the concentration giving total growth inhibition. `CC(C)/C(Cl)=N/OC(=O)Nc1cccc(C(F)(F)F)c1`: the TGI with SK-MEL-5 melanoma was 21.3 µM; with PC-3 prostate it was 29.8 µM; in the experiment with MDA-N, 23.7 µM; in the experiment with HCT-15 colon, 3.39 µM; in the experiment on HS 578T breast it was greater than 69.4 µM; in the experiment on NCI-H23 lung it was 31.3 µM. The concentration for total growth inhibition (TGI) with NCI-H522 lung came out at 0.951 µM; in the experiment with SW-620 colon, 1.8 µM; with DU-145 prostate, 34.5 µM; in the experiment on SK-MEL-2 melanoma it was 32.5 µM; in the experiment with IGROV1 ovarian it was 26.6 µM; with A498 renal, 37.1 µM. Further, the TGI stood at 27.6 µM in the experiment on UACC-62 melanoma; 3.12 µM in the experiment with SR leukemia; 8.12 µM with OVCAR-3 ovarian; 26.9 µM in the experiment on MDA-MB-435; 3.06 µM in the experiment on ACHN renal; 3.14 µM in the experiment with CAKI-1 renal. In the experiment with NCI/ADR-RES ovarian, this compound came in with a TGI of 16.7 µM.
With `O=C(Cc1ccccc1)N[C@@H]1COC(=O)[C@@H]2CCCN2C(=O)[C@@H]2CCCN2C1=O` (PhAc-[dS]-Pro-Pro; ester 1-C), the concentration for total growth inhibition (TGI) in the experiment with SK-MEL-5 melanoma, in the experiment on PC-3 prostate, with MDA-N, in the experiment with HCT-15 colon, in the experiment with HS 578T breast and in the experiment on NCI-H23 lung was greater than 100 µM throughout. Moreover, the concentration for total growth inhibition (TGI) in the experiment on SW-620 colon, in the experiment with DU-145 prostate, in the experiment on SK-MEL-2 melanoma, in the experiment with IGROV1 ovarian, with A498 renal and in the experiment with UACC-62 melanoma was greater than 100 µM each time. Besides, the TGI with SR leukemia, in the experiment with OVCAR-3 ovarian, in the experiment on MDA-MB-435, in the experiment with ACHN renal, in the experiment on CAKI-1 renal and with NCI/ADR-RES ovarian was greater than 100 µM each time.
For the compound `CC1(C)C=Cc2c(cc3oc4ccc5c(c4c(=O)c3c2O)C=CC(C)(C)O5)O1`, the concentration for total growth inhibition (TGI) with SK-MEL-5 melanoma, in the experiment with PC-3 prostate, with MDA-N, with HCT-15 colon, in the experiment on HS 578T breast and in the experiment on NCI-H23 lung was greater than 100 µM in each case. Also, the TGI in the experiment on NCI-H522 lung, in the experiment with SW-620 colon, with DU-145 prostate, with SK-MEL-2 melanoma, with IGROV1 ovarian and in the experiment with A498 renal was greater than 100 µM in each case. Besides, the TGI with UACC-62 melanoma, in the experiment on SR leukemia, with OVCAR-3 ovarian, in the experiment with MDA-MB-435, with ACHN renal and in the experiment on CAKI-1 renal was greater than 100 µM each time. The TGI in the experiment with NCI/ADR-RES ovarian was greater than 100 µM.
Turning to `C=CCOc1ccc(/C(N=Nc2ccc(C)cc2)=N/NC(=O)c2ccccc2)cc1OC`, the TGI with SK-MEL-5 melanoma is 31.9 µM; with PC-3 prostate, greater than 100 µM; in the experiment on MDA-N, 57.6 µM; with HCT-15 colon it was greater than 100 µM; with HS 578T breast, 87.6 µM; in the experiment with NCI-H23 lung, 69.1 µM. For the same compound, the TGI in the experiment with NCI-H522 lung was 49.6 µM; in the experiment on SW-620 colon, greater than 100 µM; with DU-145 prostate, greater than 100 µM; in the experiment on SK-MEL-2 melanoma it was 73.3 µM; in the experiment on IGROV1 ovarian it was 62.1 µM; with A498 renal it was 72 µM. Moreover, the TGI is 31.6 µM in the experiment with UACC-62 melanoma; 25 µM with SR leukemia; greater than 100 µM in the experiment with OVCAR-3 ovarian; 47.3 µM in the experiment with MDA-MB-435; greater than 100 µM in the experiment with ACHN renal; greater than 100 µM in the experiment on CAKI-1 renal. This compound registered a total growth inhibition concentration (TGI) in the experiment with NCI/ADR-RES ovarian greater than 100 µM.
For the compound `C=C[C@]1(O)CCC[C@]2(C)C(=O)CCC12C` (some centres not stated), the concentration for total growth inhibition (TGI) with SK-MEL-5 melanoma, with PC-3 prostate, with MDA-N, in the experiment with HCT-15 colon, in the experiment on HS 578T breast and with NCI-H23 lung was greater than 100 µM each time. For the same compound, the concentration for total growth inhibition (TGI) in the experiment with NCI-H522 lung, in the experiment on SW-620 colon, with DU-145 prostate, with K-562 leukemia, with SK-MEL-2 melanoma and in the experiment on IGROV1 ovarian was greater than 100 µM throughout. The TGI in the experiment on A498 renal, with UACC-62 melanoma, in the experiment with SR leukemia, with OVCAR-3 ovarian, with MDA-MB-435 and in the experiment on ACHN renal was greater than 100 µM in each case. In the experiment on NCI/ADR-RES ovarian, this compound had a TGI greater than 100 µM.
As to `COc1ccc(/C=N/n2c(=O)[nH]c3ccccc3c2=O)cc1`, the TGI with SK-MEL-5 melanoma, with PC-3 prostate, with MDA-N, in the experiment with HCT-15 colon, in the experiment on HS 578T breast and in the experiment on NCI-H23 lung was greater than 100 µM each time. For the same compound, the total growth inhibition concentration (TGI) in the experiment on SW-620 colon, with DU-145 prostate, in the experiment on K-562 leukemia, in the experiment on SK-MEL-2 melanoma, in the experiment with IGROV1 ovarian and with A498 renal was greater than 100 µM each time. The TGI in the experiment on UACC-62 melanoma, in the experiment with SR leukemia, with OVCAR-3 ovarian, in the experiment on MDA-MB-435, in the experiment on ACHN renal and with CAKI-1 renal was greater than 100 µM in each case. This compound registered a total growth inhibition concentration (TGI) in the experiment on NCI/ADR-RES ovarian greater than 100 µM.
Regarding `Cc1cc(N)ccc1N=Nc1ccc(S(=O)(=O)CCOS(=O)(=O)O)cc1`, the TGI was 2.23 µM in the experiment with SK-MEL-5 melanoma; 12.7 µM with PC-3 prostate; 0.755 µM in the experiment with MDA-N; 11.3 µM in the experiment on HCT-15 colon; 35.5 µM with HS 578T breast; 24.5 µM with NCI-H23 lung. The concentration for total growth inhibition (TGI) was 0.773 µM in the experiment on NCI-H522 lung; 16.1 µM with SW-620 colon; greater than 100 µM in the experiment with DU-145 prostate; 3.89 µM with SK-MEL-2 melanoma; 13.9 µM with IGROV1 ovarian; 31.1 µM in the experiment with A498 renal. The concentration for total growth inhibition (TGI) in the experiment with UACC-62 melanoma was 20.3 µM; in the experiment with SR leukemia, greater than 100 µM; in the experiment with OVCAR-3 ovarian, 9.55 µM; with MDA-MB-435 it was 0.502 µM; in the experiment with ACHN renal, 14.4 µM; in the experiment on CAKI-1 renal, 8.61 µM. In the experiment on NCI/ADR-RES ovarian, this compound came in with a TGI greater than 100 µM.
For `CCOC(=O)[C@@H]1OC(c2ccccc2)O[C@H]1C(=O)OCC`, the TGI in the experiment with SK-MEL-5 melanoma, in the experiment with PC-3 prostate, with MDA-N, in the experiment on HCT-15 colon, with HS 578T breast and with NCI-H23 lung was greater than 100 µM each time. Also, the TGI in the experiment on SW-620 colon, in the experiment on DU-145 prostate, in the experiment on K-562 leukemia, with SK-MEL-2 melanoma, with IGROV1 ovarian and in the experiment on A498 renal was greater than 100 µM in each case. The TGI in the experiment with UACC-62 melanoma, in the experiment on SR leukemia, with OVCAR-3 ovarian, in the experiment on MDA-MB-435, in the experiment on ACHN renal and with NCI/ADR-RES ovarian was greater than 100 µM in each case.
In the case of `Cn1c2c(c3ccccc31)CCN1OCC=C[C@@H](C(=O)O)[C@@H]21`, the total growth inhibition concentration (TGI) with SK-MEL-5 melanoma, with PC-3 prostate, in the experiment on MDA-N, in the experiment with HCT-15 colon, in the experiment on HS 578T breast and in the experiment on NCI-H522 lung was greater than 100 µM each time. Moreover, the concentration for total growth inhibition (TGI) in the experiment on SW-620 colon, in the experiment on DU-145 prostate, in the experiment on SK-MEL-2 melanoma, in the experiment with IGROV1 ovarian, in the experiment on A498 renal and in the experiment on UACC-62 melanoma was greater than 100 µM throughout. The concentration for total growth inhibition (TGI) in the experiment with SR leukemia, in the experiment with OVCAR-3 ovarian, in the experiment with MDA-MB-435, with ACHN renal, with CAKI-1 renal and with NCI/ADR-RES ovarian was greater than 100 µM throughout.
In the case of `Cc1nc2c(O)cc3c4c(=O)n(C)c(=O)n(C)c4n(Cc4ccccc4)c3c2nc1C`, the TGI in the experiment with SK-MEL-5 melanoma was 32.8 µM; in the experiment with PC-3 prostate it was 31.2 µM; in the experiment on MDA-N, 34.2 µM; in the experiment on HCT-15 colon it was 34.3 µM; with HS 578T breast, 80.1 µM; in the experiment on NCI-H23 lung, 38 µM. In addition, the TGI in the experiment with SW-620 colon was 44.2 µM; with DU-145 prostate, greater than 100 µM; in the experiment with K-562 leukemia, greater than 100 µM; in the experiment with SK-MEL-2 melanoma it was 31.9 µM; in the experiment with A498 renal, 81.7 µM; in the experiment with UACC-62 melanoma, 34 µM. Moreover, the TGI with SR leukemia is 57.6 µM; in the experiment on MDA-MB-435, 33.9 µM; in the experiment with ACHN renal it was 31.7 µM; in the experiment with NCI/ADR-RES ovarian, 74.9 µM.
Consider `Cc1cc(=O)oc2cc(SC(=O)N(C)C)ccc12`, for which the TGI with SK-MEL-5 melanoma, in the experiment with PC-3 prostate, with MDA-N, in the experiment on HCT-15 colon, in the experiment on HS 578T breast and in the experiment with NCI-H23 lung was greater than 100 µM each time. The TGI in the experiment with NCI-H522 lung, with SW-620 colon, with DU-145 prostate, in the experiment on SK-MEL-2 melanoma, in the experiment on IGROV1 ovarian and in the experiment on A498 renal was greater than 100 µM throughout. Besides, the TGI in the experiment with UACC-62 melanoma, with SR leukemia, in the experiment on OVCAR-3 ovarian, in the experiment with MDA-MB-435, in the experiment with ACHN renal and in the experiment on CAKI-1 renal was greater than 100 µM in each case. Also, in the experiment on NCI/ADR-RES ovarian, the TGI is greater than 100 µM.
In the case of `O=C(Nc1ccc(Cl)cc1)NS(=O)(=O)c1coc2ccccc2c1=O`, the TGI in the experiment on SK-MEL-5 melanoma, with PC-3 prostate, with MDA-N, in the experiment with HCT-15 colon, in the experiment with HS 578T breast and in the experiment with NCI-H23 lung was greater than 10 µM throughout. Further, the TGI with NCI-H522 lung, with SW-620 colon, with DU-145 prostate, with SK-MEL-2 melanoma, in the experiment with IGROV1 ovarian and in the experiment on A498 renal was greater than 10 µM throughout. The TGI in the experiment on UACC-62 melanoma, in the experiment on SR leukemia, with OVCAR-3 ovarian, in the experiment on MDA-MB-435, in the experiment with ACHN renal and in the experiment with CAKI-1 renal was greater than 10 µM in each case. The compound also came in with a TGI in the experiment with NCI/ADR-RES ovarian greater than 10 µM.
